Measured values as given in patent publication US10874644B2, “Therapeutic approaches for treating Alzheimer disease and related disorders through a modulation of synapse function” (Pharnext, priority 2008, dated 2020).

B1: BDNF: Brain-derived neurotrophic factor, used as a positive (neuroprotective) control (protein, UniProt P23560 19-247, looked up)
Neurotrophic factor BDNF …: APMKEANIRGQGGLAYPGVRTHGTLESVNGPKAGSRGLTSLADTFEHVIEELLDEDQKVRPNEENNKDADLYTSRVMLSSQVPLEPPLLFLLEEYKNYLDAANMSMRVRRHSDPARRGELSVCDSISEWVTAADKKTAVDMSGGTVTVLEKVPVSKGQLKQYFYETKCNPMGYTKEGCRGIDKRHWNSQCRTTQSYVRALTMDSKKRIGWRFIRIDTSCVCTLTIKRGR

Key:
[1] = system: rat primary cortical neurons; experiment: Neurite outgrowth (neurites length) in beta-amyloid Aβ25-35 intoxicated rat primary cortical neuron culture; type: cell-based; conditions: Aβ25-35 20 μM for 2 days, drug added 1 hour before, Fig. 1A, 1B
Text: Viable cells are counted in a Neubauer cytometer using the trypan blue exclusion test.

[2] = system: rat primary cortical neurons; experiment: LDH release in human Aβ1-42 toxicity on rat primary cortical cells; type: cell-based; conditions: 1 h pre-treatment, Aβ1-42 10 μM for 24 h
Procedure: Primary rat cortical neurons are cultured as described previously. […] The control medium was prepared in the same conditions.
Cortical neurons were intoxicated for 24 hours. Three separate cultures were performed per condition, 6 wells per condition.
This colorimetric assay for the quantification of cell toxicity is based on the measurement of lactate dehydrogenase (LDH) activity released from the cytosol of dying cells into the supernatant.

Molecule | Prevention of Aβ25-35 intoxication (neurite outgrowth, neurites length) [1] | Prevention of Aβ1-42 intoxication, change of LDH release ([2]; Fig. 3B, 3C) [%] | Protection from Aβ1-42 amyloid injury (LDH release) ([2]; Fig. 3A)
NS(=O)(=O)Cc1noc2ccccc12 [Zonisamide] | significantly prevented | −75 | 
CC(=O)NCCCS(=O)(=O)O [Acamprosate] | significantly prevented |  | 
B1 | efficiently prevented |  | significantly protected
